The results in this text go back to PMC8812549 (Journal of medicinal chemistry, 2021).

The nature of one data set: Parallel artificial membrane permeability assay. The class given is in vitro ADME. The following applies: passive permeability, pH 7.4.
For the compound `Cc1ccc(C2CC(N(Cc3ccc(Br)c(Cl)c3)C3CCOCC3)C2)cc1` (stereo not drawn) [compound 66], the PAMPA is on record as <6.4 1e^−6 cm/s.
Still for that read-out and setting: in the case of `Fc1ccc(C2CC(N(Cc3ccc(Br)c(Cl)c3)C3CCNCC3)C2)cc1` (stereo not drawn) [compound 59] it was 398 1e^−6 cm/s; in that of `Cc1ccc(C2CC(N(Cc3ccc(Br)c(Cl)c3)C3CCN(C(C)C)CC3)C2)cc1` (stereo not drawn) [compound 69], <23.1 1e^−6 cm/s; in that of `Cc1ccc(C2CC(N(Cc3ccc(Br)c(Cl)c3)C3CCC(N)CC3)C2)cc1` (stereo not drawn) [compound 70], 818.04 1e^−6 cm/s.
Still for that read-out and setting: in the case of `Cc1ccc(C2CC(N(Cc3ccc(Br)c(Cl)c3)C3CCCNCC3)C2)cc1` (stereo not drawn) [compound 72] it was 665.84 1e^−6 cm/s; in that of `Clc1cc(CN(C2CCNCC2)C2CC(c3cccc(Br)c3)C2)ccc1Br` (stereo not drawn) [compound 62], 14 1e^−6 cm/s.
The same measure, in the same setting: in the case of `Cc1cccc(C2CC(N(Cc3ccc(Br)c(Cl)c3)C3CCNCC3)C2)c1` (stereo not drawn) [compound 60] it was 265 1e^−6 cm/s.
With `Clc1cc(CN(C2CCNCC2)C2CC(c3ccc(Br)cc3)C2)ccc1Br` (stereo not drawn) [compound 58, N-(4-Bromo-3-chlorobenzyl)-N-(3-(4-bromophenyl)cyclobutyl)piperidin-4-amine], the PAMPA was 32 1e^−6 cm/s.
Same read-out and setting: under `Cc1ccc(C2CC(N(Cc3ccc(Br)c(Cl)c3)C3CCNCC3)C2)cc1` (stereo not drawn) [compound 56, N-(4-Bromo-3-chlorobenzyl)-N-(3-(p-tolyl)cyclobutyl)piperidin-4-amine] stands 806 1e^−6 cm/s; under `Cc1ccc(C2CC(N(Cc3ccc(Br)c(Cl)c3)C3CCN(C)CC3)C2)cc1` (stereo not drawn) [compound 68], 274.27 1e^−6 cm/s; under `Cc1ccc(C2CC(N(Cc3ccc(Br)c(Cl)c3)C3CC4CNC3C4)C2)cc1` (stereo not drawn) [compound 74], 122.99 1e^−6 cm/s.
On the same count and under the same terms, under `CC(=O)N1CCC(N(Cc2ccc(Br)c(Cl)c2)C2CC(c3ccc(C)cc3)C2)CC1` (stereo not drawn) [compound 67] stands 1909 1e^−6 cm/s.

Assay in a further data set: not given
The following applies: mice, 1 mg/kg, di-HCl salt; liver.
For `Cc1ccc([C@H]2C[C@H](N(Cc3ccc(Br)c(Cl)c3)C3CCNCC3)C2)cc1` [77b], the Cmax liver turned out to be 4.13 µM.

The data set is the same for the next values; noted with them: mice, 10 mg/kg IP, 24 hours; posture, body temperature, respiratory rate.
For the compound `Clc1cc(CN(C2CCNCC2)C2CC(c3ccc(Br)cc3)C2)ccc1Br` (stereo not drawn) [compound 58, N-(4-Bromo-3-chlorobenzyl)-N-(3-(4-bromophenyl)cyclobutyl)piperidin-4-amine], the “unusual behavior or acute toxicity” value was “No unusual behavior or acute toxicity”.

Staying with this data set, now noted: mice, 10 mg/kg IP, oxalate salt; liver.
As to `Clc1cc(CN(C2CCNCC2)C2CC(c3ccc(Br)cc3)C2)ccc1Br` (stereo not drawn) [compound 58, N-(4-Bromo-3-chlorobenzyl)-N-(3-(4-bromophenyl)cyclobutyl)piperidin-4-amine], the Cmax liver is 112 µM.
